Assay results reported in patent EP0726263A2, “Herbicidal (1,3,4)oxadiazoles and thiadiazoles” (American Cyanamid Company, priority 1995, dated 1996).

Key:
Type in all cases: in vivo
[1] = test system: Abutilon theophrasti; assay: Herbicidal activity, preemergence test; details: pre; sprayed onto soil, 800 g of active material per hectare; evaluated 3 weeks after treatment
Procedure, shortened: (§1)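 Scored visually on a 0-9 scale against untreated sown soil 3 weeks after application. Seeds freshly sown in prepared loam received a soil spray of 800 g/ha active material, applied as a water-diluted acetone solution with 0.4% TRITON X-155 at 900 L/ha.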

[2] = test system: Alopecurus myosuroides; assay: Herbicidal activity, preemergence test; details: pre; sprayed onto soil, 800 g of active material per hectare; evaluated 3 weeks after treatment
Procedure, shortened: as §1

[3] = test system: Amaranthus retroflexus; assay: Herbicidal activity, preemergence test; details: pre; sprayed onto soil, 800 g of active material per hectare; evaluated 3 weeks after treatment
Procedure, shortened: as §1

[4] = test system: Ambrosia artemisifolia; assay: Herbicidal activity, preemergence test; details: pre; sprayed onto soil, 800 g of active material per hectare; evaluated 3 weeks after treatment
Procedure, shortened: as §1

[5] = test system: Chenopodium album; assay: Herbicidal activity, preemergence test; details: pre; sprayed onto soil, 800 g of active material per hectare; evaluated 3 weeks after treatment
Procedure, shortened: as §1

[6] = test system: Galium aparine; assay: Herbicidal activity, preemergence test; details: pre; sprayed onto soil, 800 g of active material per hectare; evaluated 3 weeks after treatment
Procedure, shortened: as §1

[7] = test system: Glycine max; assay: Herbicidal activity, preemergence test; details: pre; sprayed onto soil, 800 g of active material per hectare; evaluated 3 weeks after treatment
Procedure, shortened: as §1

[8] = test system: Gossypium hirsutum; assay: Herbicidal activity, preemergence test; details: pre; sprayed onto soil, 800 g of active material per hectare; evaluated 3 weeks after treatment
Procedure, shortened: as §1

[9] = test system: Hordeum vulgare; assay: Herbicidal activity, preemergence test; details: pre; sprayed onto soil, 800 g of active material per hectare; evaluated 3 weeks after treatment
Procedure, shortened: as §1

[10] = test system: Ipomoea hederacea; assay: Herbicidal activity, preemergence test; details: pre; sprayed onto soil, 800 g of active material per hectare; evaluated 3 weeks after treatment
Procedure, shortened: as §1

[11] = test system: Lamium purpureum; assay: Herbicidal activity, preemergence test; details: pre; sprayed onto soil, 800 g of active material per hectare; evaluated 3 weeks after treatment
Procedure, shortened: as §1

[12] = test system: Matricaria inodora; assay: Herbicidal activity, preemergence test; details: pre; sprayed onto soil, 800 g of active material per hectare; evaluated 3 weeks after treatment
Procedure, shortened: as §1

[13] = test system: Papaver rhoeas; assay: Herbicidal activity, preemergence test; details: pre; sprayed onto soil, 800 g of active material per hectare; evaluated 3 weeks after treatment
Procedure, shortened: as §1

[14] = test system: Setaria viridis; assay: Herbicidal activity, preemergence test; details: pre; sprayed onto soil, 800 g of active material per hectare; evaluated 3 weeks after treatment
Procedure, shortened: as §1

[15] = test system: Stellaria media; assay: Herbicidal activity, preemergence test; details: pre; sprayed onto soil, 800 g of active material per hectare; evaluated 3 weeks after treatment
Procedure, shortened: as §1

[16] = test system: Triticum aestivum; assay: Herbicidal activity, preemergence test; details: pre; sprayed onto soil, 800 g of active material per hectare; evaluated 3 weeks after treatment
Procedure, shortened: as §1

[17] = test system: Veronica persica; assay: Herbicidal activity, preemergence test; details: pre; sprayed onto soil, 800 g of active material per hectare; evaluated 3 weeks after treatment
Procedure, shortened: as §1

[18] = test system: Zea mays; assay: Herbicidal activity, preemergence test; details: pre; sprayed onto soil, 800 g of active material per hectare; evaluated 3 weeks after treatment
Procedure, shortened: as §1

[19] = test system: Abutilon theophrasti; assay: Herbicidal activity, postemergence test; details: post; sprayed onto seedling plants, 800 g of active material per hectare; evaluated 2 weeks after treatment
Procedure, shortened: (§2)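 First, test compound in acetone containing 0.4% Triton X-155 is diluted with water. Next, it is sprayed at 800 g/ha (900 L/ha) onto freshly seeded loam (pre) or onto seedlings (post). Finally, plants are scored 0-9 visually after 3 or 2 weeks, respectively.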

[20] = test system: Alopecurus myosuroides; assay: Herbicidal activity, postemergence test; details: post; sprayed onto seedling plants, 800 g of active material per hectare; evaluated 2 weeks after treatment
Procedure, shortened: as §2

[21] = test system: Amaranthus retroflexus; assay: Herbicidal activity, postemergence test; details: post; sprayed onto seedling plants, 800 g of active material per hectare; evaluated 2 weeks after treatment
Procedure, shortened: as §2

[22] = test system: Ambrosia artemisifolia; assay: Herbicidal activity, postemergence test; details: post; sprayed onto seedling plants, 800 g of active material per hectare; evaluated 2 weeks after treatment
Procedure, shortened: as §2

[23] = test system: Chenopodium album; assay: Herbicidal activity, postemergence test; details: post; sprayed onto seedling plants, 800 g of active material per hectare; evaluated 2 weeks after treatment
Procedure, shortened: as §2

[24] = test system: Galium aparine; assay: Herbicidal activity, postemergence test; details: post; sprayed onto seedling plants, 800 g of active material per hectare; evaluated 2 weeks after treatment
Procedure, shortened: as §2

[25] = test system: Glycine max; assay: Herbicidal activity, postemergence test; details: post; sprayed onto seedling plants, 800 g of active material per hectare; evaluated 2 weeks after treatment
Procedure, shortened: as §2

[26] = test system: Gossypium hirsutum; assay: Herbicidal activity, postemergence test; details: post; sprayed onto seedling plants, 800 g of active material per hectare; evaluated 2 weeks after treatment
Procedure, shortened: as §2

[27] = test system: Hordeum vulgare; assay: Herbicidal activity, postemergence test; details: post; sprayed onto seedling plants, 800 g of active material per hectare; evaluated 2 weeks after treatment
Procedure, shortened: as §2

[28] = test system: Ipomoea hederacea; assay: Herbicidal activity, postemergence test; details: post; sprayed onto seedling plants, 800 g of active material per hectare; evaluated 2 weeks after treatment
Procedure, shortened: as §2

[29] = test system: Lamium purpureum; assay: Herbicidal activity, postemergence test; details: post; sprayed onto seedling plants, 800 g of active material per hectare; evaluated 2 weeks after treatment
Procedure, shortened: as §2

[30] = test system: Matricaria inodora; assay: Herbicidal activity, postemergence test; details: post; sprayed onto seedling plants, 800 g of active material per hectare; evaluated 2 weeks after treatment
Procedure, shortened: as §2

[31] = test system: Papaver rhoeas; assay: Herbicidal activity, postemergence test; details: post; sprayed onto seedling plants, 800 g of active material per hectare; evaluated 2 weeks after treatment
Procedure, shortened: as §2

[32] = test system: Setaria viridis; assay: Herbicidal activity, postemergence test; details: post; sprayed onto seedling plants, 800 g of active material per hectare; evaluated 2 weeks after treatment
Procedure, shortened: as §2

[33] = test system: Stellaria media; assay: Herbicidal activity, postemergence test; details: post; sprayed onto seedling plants, 800 g of active material per hectare; evaluated 2 weeks after treatment
Procedure, shortened: as §2

[34] = test system: Triticum aestivum; assay: Herbicidal activity, postemergence test; details: post; sprayed onto seedling plants, 800 g of active material per hectare; evaluated 2 weeks after treatment
Procedure, shortened: as §2

[35] = test system: Veronica persica; assay: Herbicidal activity, postemergence test; details: post; sprayed onto seedling plants, 800 g of active material per hectare; evaluated 2 weeks after treatment
Procedure, shortened: as §2

[36] = test system: Zea mays; assay: Herbicidal activity, postemergence test; details: post; sprayed onto seedling plants, 800 g of active material per hectare; evaluated 2 weeks after treatment
Procedure, shortened: as §2

SMILES | ABUTH control rating (0-9) [1] | ALOMY control rating (0-9) [2] | AMARE control rating (0-9) [3] | AMBEL control rating (0-9) [4] | CHEAL control rating (0-9) [5] | GALAP control rating (0-9) [6] | GLXMA control rating (0-9) [7] | GOSHI control rating (0-9) [8] | HORVW control rating (0-9) [9] | IPOHE control rating (0-9) [10] | LAMPU control rating (0-9) [11] | MATIN control rating (0-9) [12] | PAPRH control rating (0-9) [13] | SETVI control rating (0-9) [14] | STEME control rating (0-9) [15] | TRZAW control rating (0-9) [16] | VERPE control rating (0-9) [17] | ZEAMX control rating (0-9) [18] | ABUTH control rating (0-9) [19] | ALOMY control rating (0-9) [20] | further results
C[C@H](NC(=O)c1nnc(-c2ccccc2Cl)o1)c1ccccc1 [Example 21] | 0 (no effect) | 0 (no effect) | 3 (moderate effect) | 0 (no effect) | 2 (slight effect) | 0 (no effect) | 0 (no effect) | 0 (no effect) | 0 (no effect) | 1 (trace effect) | 5 (definite injury) | 6 (herbicidal effect) | 9 (complete kill) | 1 (trace effect) | 5 (definite injury) | 0 (no effect) | 9 (complete kill) | 0 (no effect) | 5 (definite injury) | 0 (no effect) | AMARE control rating (0-9) [21]: 8 (approaching complete kill); AMBEL control rating (0-9) [22]: 6 (herbicidal effect); CHEAL control rating (0-9) [23]: 7 (good herbicidal effect); GALAP control rating (0-9) [24]: 4 (injury); GLXMA control rating (0-9) [25]: 2 (slight effect); GOSHI control rating (0-9) [26]: 8 (approaching complete kill); HORVW control rating (0-9) [27]: 1 (trace effect); IPOHE control rating (0-9) [28]: 4 (injury); LAMPU control rating (0-9) [29]: 6 (herbicidal effect); MATIN control rating (0-9) [30]: 4 (injury); PAPRH control rating (0-9) [31]: 5 (definite injury); SETVI control rating (0-9) [32]: 6 (herbicidal effect); STEME control rating (0-9) [33]: 9 (complete kill); TRZAW control rating (0-9) [34]: 2 (slight effect); VERPE control rating (0-9) [35]: 7 (good herbicidal effect); ZEAMX control rating (0-9) [36]: 2 (slight effect)
C[C@H](NC(=O)c1nnc(-c2ccc(C(F)(F)F)cc2)o1)c1ccccc1 [Example 23] | 5 (definite injury) | 4 (injury) | 9 (complete kill) | 0 (no effect) | 8 (approaching complete kill) | 0 (no effect) | 0 (no effect) | 0 (no effect) | 0 (no effect) | 0 (no effect) | 7 (good herbicidal effect) | 8 (approaching complete kill) | 9 (complete kill) | 8 (approaching complete kill) | 8 (approaching complete kill) | 0 (no effect) | 9 (complete kill) | 1 (trace effect) | 9 (complete kill) | 3 (moderate effect) | AMARE control rating (0-9) [21]: 9 (complete kill); AMBEL control rating (0-9) [22]: 8 (approaching complete kill); CHEAL control rating (0-9) [23]: 9 (complete kill); GALAP control rating (0-9) [24]: 7 (good herbicidal effect); GLXMA control rating (0-9) [25]: 5 (definite injury); GOSHI control rating (0-9) [26]: 9 (complete kill); HORVW control rating (0-9) [27]: 4 (injury); IPOHE control rating (0-9) [28]: 8 (approaching complete kill); LAMPU control rating (0-9) [29]: 9 (complete kill); MATIN control rating (0-9) [30]: 8 (approaching complete kill); PAPRH control rating (0-9) [31]: 8 (approaching complete kill); SETVI control rating (0-9) [32]: 9 (complete kill); STEME control rating (0-9) [33]: 9 (complete kill); TRZAW control rating (0-9) [34]: 3 (moderate effect); VERPE control rating (0-9) [35]: 9 (complete kill); ZEAMX control rating (0-9) [36]: 3 (moderate effect)
